Measured values as given in patent publication US20020045780A1, “Biologically active spermidine analogues, pharmaceutical compositions and methods of treatment” (priority 1997, published 2002).
Read-outs that look alike come from different tables or passages of the source.

Tests used:
[1] = tested on: S-adenosylmethionine decarboxylase (AdoMetDC); assay: AdoMetDC activity in treated L1210 cells; assay type: cell-based, murine; details: L1210, 1 μM at 6 hours
How it was run: (§1)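 L1210 cells treated with triamines; ODC activity measured at 4 h and AdoMetDC at 6 h as ^14CO2 released from [^14C]-carboxyl-labeled L-ornithine (ODC) or S-adenosyl-L-methionine (AdoMetDC). Untreated cells served as controls and DEHSPM-treated cells as positive controls.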

[2] = tested on: ornithine decarboxylase (ODC); assay: ODC activity in treated L1210 cells; assay type: cell-based, murine; details: L1210, 1 μM at 4 hours
How it was run: as §1

[3] = tested on: spermidine/spermine acetyltransferase (SSAT); assay: SSAT activity in treated L1210 cells; assay type: cell-based, murine; details: L1210, 10 μM at 48 hours (triamine analogues)
From the text: Spermidine/spermine N^1-acetyltransferase activity was based on quantitation of [^14C]-N^1-acetylspermidine formed by acetylation of SPD with [^14C] acetyl coenzyme A according to the method of Libby et al [Biochem. Pharmacol., Vol. 38, supra]. Cells treated with DENSPM were positive controls.

laboratory animals = details: early studies in laboratory animals; cited from earlier work
L1210 cells [4] = assay: Polyamine pool analysis in L1210 cells; assay type: cell-based, murine; details: Mus musculus, L1210, 48 h, % of untreated control
How it was run: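 Cells were exposed to each analogue for 48 h at two concentrations. Washed pellets were extracted with 0.6 N HClO4 (1 ml/10^7 cells), and polyamines were quantified by HPLC of dansyl derivatives.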

L1210 cells [5] = assay: L1210 growth inhibition, IC50 determination; assay type: cell-based, murine; details: Mus musculus
Procedure: Murine L1210 leukemia cells (ATCC CCL 219) were maintained in logarithmic growth in RPMI-1640 medium containing 10% fetal calf serum or a semi-synthetic equivalent, NuSerum, 2% HEPES-MOPS buffer and 1 mM aminoguanidine.

[6] = tested on: polyamine transport apparatus; assay: Competitive uptake determination: inhibition of [3H]spermidine transport into L1210 cells; assay type: cell-based, murine; details: analogue inhibition of spermidine transport
How it was run: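 Analogues competed with [3H]spermidine for uptake into L1210 cells. Values are Ki, derived from Lineweaver–Burk analysis as competitive inhibition with respect to spermidine.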

NCCCCNCCCN [SPD, spermidine]
AdoMetDC activity, percent of untreated control [1]: 43% of untreated control | ODC activity, percent of untreated control [2]: 16% of untreated control | SSAT activity, percent of untreated control [3]: 160% of untreated control | Nephrotoxicity relative to spermine (laboratory animals): approximately one-twentieth as nephrotoxic as spermine | activity at 100 µM (L1210 cells [4]; read-out: Put): 0% | activity at 100 µM (L1210 cells [4]; read-out: Spd): 117% | activity at 100 µM (L1210 cells [4]; read-out: Spm): 118% | activity at 500 µM (L1210 cells [4]; read-out: Put): 0% | activity at 500 µM (L1210 cells [4]; read-out: Spd): 145% | activity at 500 µM (L1210 cells [4]; read-out: Spm): 108% | IC50 (L1210 cells [5]; L1210, 48 h, L1210, 48 hour exposure, read-out: IC50 48 hour): > 100 µM | IC50 (L1210 cells [5]; L1210, 96 h, L1210, 96 hour exposure, read-out: IC50 96 hour): > 100 µM | Ki [6]: 2.2 µM
